Test results as given in article PMC9308496 (Journal of medicinal chemistry, 2021).

Experiments:
[1] = dogs; cited from earlier work
[2] = target: hD2R (human D2LR) (Homo sapiens, UniProt P14416); assay: Radioligand competition binding at hD2R with [3H]-N-methylspiperone
[3] = target: MOR (SNAP-mMOR) (Mus musculus, UniProt P42866); assay: BRET antagonism at MOR using GPA in the presence of 100 nM DAMGO; assay type: cell-based
[4] = target: hD3R (Homo sapiens, UniProt P35462); assay: Radioligand competition binding at hD3R with [3H]-N-methylspiperone
hD3R, sequence (P35462 whole entry): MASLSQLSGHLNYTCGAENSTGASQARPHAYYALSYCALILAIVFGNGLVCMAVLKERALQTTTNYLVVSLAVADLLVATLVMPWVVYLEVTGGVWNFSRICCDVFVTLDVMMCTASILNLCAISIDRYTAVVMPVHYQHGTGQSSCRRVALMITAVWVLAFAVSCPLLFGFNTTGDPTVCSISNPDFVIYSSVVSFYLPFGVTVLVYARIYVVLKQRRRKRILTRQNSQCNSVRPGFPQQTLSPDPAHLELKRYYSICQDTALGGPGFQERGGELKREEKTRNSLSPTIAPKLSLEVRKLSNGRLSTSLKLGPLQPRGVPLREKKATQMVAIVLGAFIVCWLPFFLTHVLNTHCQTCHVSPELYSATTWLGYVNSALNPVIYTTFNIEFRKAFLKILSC

MOR (SNAP-mMOR), sequence (P42866 whole entry): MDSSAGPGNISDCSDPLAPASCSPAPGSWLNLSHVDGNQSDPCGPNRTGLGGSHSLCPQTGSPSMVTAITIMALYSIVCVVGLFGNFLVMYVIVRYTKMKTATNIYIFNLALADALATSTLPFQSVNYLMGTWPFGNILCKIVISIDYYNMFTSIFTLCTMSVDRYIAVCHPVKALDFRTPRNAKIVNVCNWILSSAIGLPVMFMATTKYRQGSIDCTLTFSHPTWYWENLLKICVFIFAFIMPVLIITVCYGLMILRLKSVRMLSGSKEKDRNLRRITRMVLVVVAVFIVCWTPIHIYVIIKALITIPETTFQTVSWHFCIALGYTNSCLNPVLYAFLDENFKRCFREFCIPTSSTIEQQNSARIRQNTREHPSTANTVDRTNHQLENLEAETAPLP
hD2R (human D2LR), sequence (P14416 whole entry): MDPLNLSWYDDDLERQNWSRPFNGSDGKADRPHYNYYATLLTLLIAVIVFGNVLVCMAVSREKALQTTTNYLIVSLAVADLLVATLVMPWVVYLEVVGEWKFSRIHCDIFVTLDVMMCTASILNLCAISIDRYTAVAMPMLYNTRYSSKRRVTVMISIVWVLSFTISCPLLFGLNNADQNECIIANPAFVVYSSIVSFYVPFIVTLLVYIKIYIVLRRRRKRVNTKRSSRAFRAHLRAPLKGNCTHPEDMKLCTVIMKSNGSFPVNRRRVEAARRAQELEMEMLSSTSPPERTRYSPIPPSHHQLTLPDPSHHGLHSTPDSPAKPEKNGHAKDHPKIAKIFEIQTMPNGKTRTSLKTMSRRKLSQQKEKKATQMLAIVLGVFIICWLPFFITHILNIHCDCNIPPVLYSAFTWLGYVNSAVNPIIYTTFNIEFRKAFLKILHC

In the case of `Cc1ncoc1-c1nnc(SCCCN2C[C@@H]3C[C@]3(c3ccc(C(F)(F)F)cc3F)C2)n1C` [GSK598809], the “potentiation of hypertensive effects of cocaine” value [1] is listed as “potentiation of hypertensive effects observed in dogs produced by cocaine”.
With `CCC(=O)C(CC(C)N(C)C)(c1ccccc1)c1ccccc1` (centres unmarked) [compound 6, methadone] the “D2R Ki” value [2] was “completely inactive”.
Compound `CCOC(=O)/C=C1\[C@@H]2CCC[C@@]1(c1cccc(O)c1)CCN2CCCCNC(=O)c1cc2ccccc2[nH]1` [compound 57, trans-Ethyl (Z)-2-((1S,5S)-2-(4-(1H-indole-2-carboxamido)butyl)-5-(3-hydroxyphenyl)-2-azabicyclo[3.3.1]nonan-9-ylidene)acetate] has an IC50 [3] of 3.52 µM.
Work on `O=C(NCCCCN1CC[C@]2(c3cccc(O)c3)CCC[C@H]1[C@H]2O)c1cc2ccccc2[nH]1` [compound 62, N-(4-((1S,5S,9S)-9-Hydroxy-5-(3-hydroxyphenyl)-2-azabicyclo[3.3.1]nonan-2-yl)butyl)-1H-indole-2-carboxamide] yielded a Ki [4] of 0.0796 µM.
In the case of `CCOC(=O)/C=C1\[C@@H]2CCC[C@@]1(c1cccc(O)c1)CCN2CCN1CCN(c2cccc(Cl)c2Cl)CC1` [compound 65, Ethyl (Z)-2-((1S,5S)-2-(2-(4-(2,3-dichlorophenyl)piperazin-1-yl)ethyl)-5-(3-hydroxyphenyl)-2-azabicyclo[3.3.1]nonan-9-ylidene)acetate], the Ki [4] is reported as 0.139 µM.
